Assay results reported in the supplement of paper PMC6965134.

Experiment: TIMS collisional cross section (CCS, N2) of the lipid ion; higher = larger ion cross section
Conditions: ionization mode: negative, one isomer drawn
Experimental: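 Lipid extracts of human plasma (NIST SRM 1950), mouse liver or HeLa cells were separated by nanoflow C18 LC (30 min gradient) and analysed by TIMS-PASEF on a timsTOF Pro. Ion mobility was calibrated with the Agilent tuning mix (negative mode ions) and converted to collisional cross sections (Mason–Schamp, N2).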
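Note: lipids from MTBE extraction, five replicate injections per sample, 100 ms TIMS ramp spanning 0.6–1.95 Vs/cm², lipid identity assigned from PASEF MS/MS spectra.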

With `CCCC/C=C/C=C/C=C/CCCCCCCC(=O)OC[C@H](COP(=O)([O-])OCC[N+](C)(C)C)OC(=O)CCCCCCC/C=C/C=C/C=C/CCCC` [PC 18:3_18:3] the “TIMS collisional cross section” value (sample type: Mouse Liver, ion (formula + adduct): [C44H76NO8P+HCOO] 1-) was 289.8 Å².

In the case of `CCCCC/C=C\C/C=C\C/C=C\CCCCCCC(=O)O[C@H](COC(=O)CCCC/C=C\C/C=C\C/C=C\CCCCC)COP(=O)([O-])OCC[N+](C)(C)C` [PC 18:3_20:3], the “TIMS collisional cross section” value (sample type: Human plasma, ion (formula + adduct): [C46H80NO8P+AcO] 1-) is reported as 300.6 Å².

For `CC/C=C\C/C=C\C/C=C\C/C=C\C/C=C\C/C=C\CCC(=O)O[C@H](COC(=O)CCCC/C=C\C/C=C\C/C=C\C/C=C\CC)COP(=O)([O-])OCC[N+](C)(C)C` [PC 18:4@_22:6], the “TIMS collisional cross section” value (sample type: Mouse Liver, ion (formula + adduct): [C48H76NO8P-CH3] 1-) was 280 Å².

In the case of `CCCCCCCCCCCCCCCCCCC(=O)OC[C@H](COP(=O)([O-])OCC[N+](C)(C)C)OC(C)=O` [PC 19:0@_2:0], the “TIMS collisional cross section” value (sample type: Human plasma, ion (formula + adduct): [C29H58NO8P-H] 1-) is reported as 244.4 Å².

With `CC/C=C\C/C=C\C/C=C\C/C=C\C/C=C\C/C=C\CCC(=O)O[C@H](COC(=O)CCCCCCCCCCCCCCCCCCC)COP(=O)([O-])OCC[N+](C)(C)C` [PC 20:0@_22:6] the “TIMS collisional cross section” value (sample type: Mouse Liver, ion (formula + adduct): [C50H88NO8P+HCOO] 1-) was 308.5 Å².

With `CCCCC/C=C\C/C=C\C/C=C\C/C=C\CCCC(=O)O[C@H](COC(=O)CCCCCCCCCCCCCCCCCCC)COP(=O)([O-])OCC[N+](C)(C)C` [PC 20:0_20:4] the “TIMS collisional cross section” value (sample type: Mouse Liver, ion (formula + adduct): [C48H88NO8P+HCOO] 1-) was 304.5 Å².

With `CC/C=C\C/C=C\C/C=C\C/C=C\C/C=C\C/C=C\CCC(=O)O[C@H](COC(=O)CCCCCCCCC/C=C\CCCCCCCC)COP(=O)([O-])OCC[N+](C)(C)C` [PC 20:1_22:6@] the “TIMS collisional cross section” value (sample type: Mouse Liver, ion (formula + adduct): [C50H86NO8P+HCOO] 1-) was 306.7 Å².

For `CC/C=C\C/C=C\C/C=C\C/C=C\C/C=C\C/C=C\CCC(=O)O[C@H](COC(=O)CCCCCCCCC/C=C\C/C=C\CCCCC)COP(=O)([O-])OCC[N+](C)(C)C` [PC 20:2@_22:6], the “TIMS collisional cross section” value (sample type: Mouse Liver, ion (formula + adduct): [C50H84NO8P+HCOO] 1-) was 303.9 Å².

For `CC/C=C\C/C=C\C/C=C\C/C=C\C/C=C\C/C=C\CCC(=O)O[C@H](COC(=O)CCC/C=C\C/C=C\C/C=C\C/C=C\C/C=C\CC)COP(=O)([O-])OCC[N+](C)(C)C` [PC 20:5_22:6], the “TIMS collisional cross section” value (sample type: Mouse Liver, ion (formula + adduct): [C50H78NO8P+HCOO] 1-) was 300.4 Å².

In the case of `CC/C=C\C/C=C\C/C=C\C/C=C\C/C=C\C/C=C\CCC(=O)OC[C@H](COP(=O)([O-])OCC[N+](C)(C)C)OC(=O)CC/C=C\C/C=C\C/C=C\C/C=C\C/C=C\C/C=C\CC` [PC 22:6_22:6], the “TIMS collisional cross section” value (sample type: Mouse Liver, ion (formula + adduct): [C52H80NO8P+HCOO] 1-) is reported as 304.9 Å².

With `CCCCCCCCCCCCCCCCCC(=O)O[C@H](COCCCCCCCCCCCCCC)COP(=O)([O-])OCC[N+](C)(C)C` [PC O- 14:0@_18:0] the “TIMS collisional cross section” value (sample type: Mouse Liver, ion (formula + adduct): [C40H82NO7P+HCOO] 1-) was 287.2 Å².

For `CCCCCCCC/C=C\CCCCCCCC(=O)O[C@H](COCCCCCCCCCCCCCC)COP(=O)([O-])OCC[N+](C)(C)C` [PC O- 14:0@_18:1], the “TIMS collisional cross section” value (sample type: Human plasma, ion (formula + adduct): [C40H80NO7P+HCOO] 1-) was 286.1 Å².

In the case of `CCCCC/C=C\C/C=C\CCCCCCCC(=O)O[C@H](COCCCCCCCCCCCCCC)COP(=O)([O-])OCC[N+](C)(C)C` [PC O- 14:0@_18:2], the “TIMS collisional cross section” value (sample type: Human plasma, ion (formula + adduct): [C40H78NO7P-CH3] 1-) is reported as 265.6 Å².

In the case of `CCCCC/C=C\C/C=C\C/C=C\C/C=C\CCCC(=O)O[C@H](COCCCCCCCCCCCCCC)COP(=O)([O-])OCC[N+](C)(C)C` [PC O- 14:0@_20:4], the “TIMS collisional cross section” value (sample type: Human plasma, ion (formula + adduct): [C42H78NO7P-CH3] 1-) is reported as 270.6 Å².

In the case of `CCCCC/C=C\C/C=C\C/C=C\C/C=C\CCCC(=O)O[C@H](COCCCCCCCCCCCCCCC)COP(=O)([O-])OCC[N+](C)(C)C` [PC O- 15:0@_20:4], the “TIMS collisional cross section” value (sample type: Human plasma, ion (formula + adduct): [C43H80NO7P-H] 1-) is reported as 276.3 Å².

In the case of `CCCCCCCCCCCCCCCCOC[C@H](COP(=O)([O-])OCC[N+](C)(C)C)OC(=O)CCCCCCCCCCCCC` [PC O- 16:0@_14:0], the “TIMS collisional cross section” value (sample type: Human plasma, ion (formula + adduct): [C38H78NO7P+HCOO] 1-) is reported as 282.2 Å².
